Measurements: US20110044892A1, “FORMULATION AND METHOD FOR TREATMENT OF TEETH” (priority 2007, published 2011)

What was measured:
[1] = Dentinal tubule plugging by lanthanide salt solutions on etched dentine discs (SEM, backscattered SEM, EDX); set-up: species or system human; conditions: for depth of penetration within the tubules: 4% to 5% by weight solution in water; for depth of penetration within the tubules / blockage or plugging of the tubules (SEM appearance) / deposits on / coverage of the dentinal surface: 5 to 10 minutes on disc; for depth of penetration within the tubules / penetration of / deposits within the tubules (qualitative): SEM; for presence of the lanthanide by EDX: energy dispersive X-ray microanalysis of treated dentine; for blockage or plugging of the tubules (SEM appearance) / deposits on / coverage of the dentinal surface: solution in water; for penetration of / deposits within the tubules (qualitative): in water
Text: We also assessed other lanthanide compounds, as hereinafter discussed.
For each of the lanthanide salts, caries-free surgically-extracted human molar teeth were cleaned of organic material and, after removal of the crown, sectioned mesio-distally to provide one to two 1-mm dentine discs which were used in the experiment immediately. […] A solution containing a respective one of the above-mentioned lanthanide salts in a concentration of 4% to 5% by weight in the solvent was placed on or in contact with the discs respectively for 5 to 10 minutes before rinsing under flowing tap water. These treated discs were dried completely and then split using pliers, this helping to expose the tubular area for observation of depth of penetration. Specimens were then carbon-coated before examination under SEM (scanning electron microscope). The same procedure was used for each of the other lanthanide compounds hereinafter discussed.
When observed in a backscattered electron beam, dense materials appear as high contrast (bright areas) material relative to the background material (tooth structure). Lanthanides in general have greater density compared to the hydroxyapatite present in the tooth. Thus, in a backscattered electron beam, the lanthanides appear as bright areas due to their high density compared to the background.

[2] = pH of solution or formulation; format: physicochemical; conditions: solution as applied to dentin
Text: If the solution applied to the dentin is too acidic, for example, lower than 5.5, it will demineralize and thereby undesirably weaken the dentin. If the solution applied to the dentin is too basic, for example, in excess of 7.5, it will undesirably form a lot of calculus. An ideal pH for the dentin treatment solution is considered to be about 6 to 7, preferably about 6.6 to 7. Such a pH is believed to be important not only to prevent de-mineralization but also to aid in re-mineralization of dentin surfaces. Therefore, in accordance with the present invention, the dentin treatment solution is formulated to have a pH of about 6 to 7, preferably about 6.6 to 7. […] The formulation with the addition of the insoluble oxide forms on the surface of the dentin or other tooth surface a protective coat that keeps the pH constant to maintain the tooth integrity and protect its surface from, for example, routinely used acidic beverages, protection of dental restorations, and microleakage protection (protection from bacterial leakage and leakage associated with restorative materials) as well as for re-mineralization. The insoluble oxide may include other insoluble substances providing a pH of about 6 to 7 in the dentin treatment solution and on the dentin surfaces, for example, amphoteric oxides such as aluminum oxide and zinc oxide. […]

[3] = Text: For the purposes of this specification and the claims, the term “soluble” refers to a characteristic of a salt of dissolving in water (or other solvent in which the salt is placed) to the extent that there is substantially no precipitation or settling out of material.

| Compound | depth of penetration within the tubules [1] | presence of the lanthanide by EDX [1] | blockage or plugging of the tubules (SEM appearance) [1] | deposits on / coverage of the dentinal surface [1] | pH of solution [2] | penetration of / deposits within the tubules (qualitative) [1] | solubility in water [3] |
| --- | --- | --- | --- | --- | --- | --- | --- |
| O.O.O.O.O.O.O.[Cl-].[Cl-].[Cl-].[La+3] [lanthanum chloride, lanthanum chloride heptahydrate] | up to 12 microns | confirmed | substantially complete blockage or plugging of the tubules | cover some of the surface | – | – | – |
| O.O.O.O.O.O.O=[N+]([O-])[O-].O=[N+]([O-])[O-].O=[N+]([O-])[O-].[Gd+3] [gadolinium nitrate, gadolinium nitrate hexahydrate] | up to 5 microns | confirmed | substantially complete blockage or plugging of the tubules | substantially covering the dentinal surface | about 4.3 | – | – |
| O.O.O.O.O.O.[Cl-].[Cl-].[Cl-].[Gd+3] [gadolinium chloride, gadolinium chloride hexahydrate] | – | confirmed | substantially complete blockage or plugging of the tubules | cover substantially the dentinal surface | – | – | – |
| O=C([O-])C(=O)[O-].[K+].[K+] [potassium oxalate, reference compound] | 3 to 4 microns | – | formed crystals that appear to block the tubules | a substantial amount of potassium oxalate was deposited on the dentin surface | about 2 | – | – |
| O=C([O-])[O-].O=C([O-])[O-].O=C([O-])[O-].[La+3].[La+3] [lanthanum carbonate] | – | – | no plugging observed | no dentin surface deposits were observed | – | poor penetration of the tubules | – |
| O.O.O.O.O.O.[Cl][Sm]([Cl])[Cl] [samarium chloride, samarium chloride hexahydrate] | – | confirmed | substantially complete blockage or plugging of the tubules | cover substantially the dentinal surface | – | – | – |
| O.O.O.O.O.O.O.[Ce+3].[Cl-].[Cl-].[Cl-] [cerium chloride, cerium chloride heptahydrate] | – | confirmed | substantially complete blockage or plugging of the tubules | cover substantially the dentinal surface | – | – | – |
| [La+3].[OH-].[OH-].[OH-] [lanthanum hydroxide] | – | – | no plugging observed | no dentin surface deposits were observed | – | poor penetration of the tubules | not being soluble in water |
| O=[N+]([O-])[O-].[K+] [potassium nitrate, reference compound] | – | – | – | considerable deposits on the surface | – | little or no deposits within the tubules | – |
